{
  "source": "patent US6495588B2",
  "about": "“Scytonemin and methods of using thereof” (The Regents of the University of California, priority 2000, dated 2002)",
  "key": {"[1]": {"molecular_target": "T1, GST-PLK1 (Homo sapiens, UniProt P53350)", "T1 construct": "made in house", "T1 sequence (P53350 whole entry)": "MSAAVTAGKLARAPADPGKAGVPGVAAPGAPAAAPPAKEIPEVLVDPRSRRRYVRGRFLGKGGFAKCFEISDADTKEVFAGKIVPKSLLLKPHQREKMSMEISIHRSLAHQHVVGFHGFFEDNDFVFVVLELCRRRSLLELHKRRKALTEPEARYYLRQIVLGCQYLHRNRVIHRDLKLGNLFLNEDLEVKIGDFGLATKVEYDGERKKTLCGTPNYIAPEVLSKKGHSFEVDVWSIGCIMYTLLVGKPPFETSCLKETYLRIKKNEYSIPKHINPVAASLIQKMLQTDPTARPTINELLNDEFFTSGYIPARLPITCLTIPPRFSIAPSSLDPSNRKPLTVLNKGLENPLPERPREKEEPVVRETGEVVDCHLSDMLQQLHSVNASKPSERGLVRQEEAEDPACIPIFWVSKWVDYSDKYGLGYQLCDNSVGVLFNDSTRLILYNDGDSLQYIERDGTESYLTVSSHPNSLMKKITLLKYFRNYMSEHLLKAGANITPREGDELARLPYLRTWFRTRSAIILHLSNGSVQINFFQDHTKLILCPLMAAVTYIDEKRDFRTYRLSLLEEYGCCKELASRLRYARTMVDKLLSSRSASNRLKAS", "experiment": "GST-Plk kinase activity kinetic assay (phosphorylation of GST-cdc25C)", "format": "biochemical", "details": "for reduction of GST-PLK1 activity: preincubation 0-45 minutes; for Ki: 10-25 μM ATP, 2, 4, 6 μM SCY", "protocol": "GST-PLK1, and GST-cdc25C were synthesized as described in Roshak et al. (2000), which is herein incorporated by reference. GST-PLK1 and GST-cdc25C were purified to 20% and 60% purity as determined by SDS-PAGE analysis and Coomassie Blue staining. The remaining impurities were determined to be free GST.\nKinase reactions comprised 350 nM GST-cdc25C, 0.5 μCi [^33P]-γATP (NEN, Cambridge, Mass.), 10 μM unlabelled ATP (Sigma, St. Louis, Mo.), 20 nM GST-PLK1 in kinase reaction buffer comprising 20 mM HEPES (pH 7.4), 50 mM KCl, 10 mM MgCl2, 1 mM EGTA, 0.5 mM DTT. Enzyme and substrates were diluted individually in kinase buffer and the PLK1 solution was pre-activated by incubating at 37° C. for 1 hour prior to its addition to the assay as described in Roshak et al. (2000).\n50 μl reactions were conducted in 96 well polypropylene plates. First, 1 nM to 10 μM SCY dissolved in 100% DMSO was added, followed by the addition of enzyme and substrate to give a final concentration of 4% DMSO. The reactions were initiated by the addition of ATP. The reactions progressed for 60 minutes at 37° C., and were then stopped with 25 mM EDTA and 1 mM unlabeled ATP. The samples were transferred to 96 well 0.45 μm millipore filtration plates (Millipore, Bedford, Mass.), the proteins were precipitated with a 10% TCA, 5% sodium pyrophosphate solution (TCA-NaPP), and the plates were filtered using a Millipore microplate filtration unit (Millipore, Bedford, Mass.). The plates were washed twice with the TCA-NaPP solution, twice with 75 mM phosphoric acid, and twice with PBS. After drying at room temperature, scintillation fluid was added to the plate, and [^33P]-γATP incorporation was measured on a Packard Top-Count.\nAnalysis by autoradiography was performed as described in Roshak et al. (2000). Briefly, GST-PLK1 (20 nM/assay), […], 1 μCi [^32P]-γATP, and 350 nM GST-cdc25C were incubated in microcentrifuge tubes (50 μl/assay) for 60 minutes at 37° C. in the presence of 1 to 10 μM SCY and 10 μM hymenialdisine. The reactions were terminated with 25 mM EDTA, separated by SDS-PAGE and GST-cdc25C phosphorylation was visualized using Imagequest (Molecular Dynamics, Sunnyvale, Calif.). 10 μM hymenialdisine served as a positive control for each assay described above.\nTo determine whether SCY was acting as and ATP analogue, ATP competition assays were conducted as described above in the presence of increasing concentrations, 10, 15, 20, and 25 μM, of unlabeled ATP and three concentrations of SCY, 2, 4, and 6 μM SCY. The results were plotted using the Grafit statistical analysis program.\nTo ascertain if inhibition of GST-PLK1, activity by SCY is time dependent, 3 μM and 10 μM SCY were pre-incubated with both enzyme and substrate for 0, 15, 30, and 45 minutes at room temperature. At the end of the pre-incubation period, ATP was added to initiate the activity assay. […] GST-PLK1, activity was reduced by about 58% and about 93% after preincubation with 3 μM and 10 μM SCY, respectively, which is consistent with the levels shown in FIG. 3."}, "[2]": {"system": "CAP-induced mouse ear edema", "experiment": "Capsaicin (CAP)-induced mouse ear edema assay", "format": "in vivo", "protocol": "Various dilutions of test compounds were topically applied in acetone to the inside and outside surfaces of the left ears of mice in a solution comprising 0.1 μg RTX or 250 μg CAP per ear. A control, acetone, was applied to all right ears. After a 30 minute incubation, the mice were sacrificed, the ears removed, and bores taken and weighed.\nFor systemic studies, the test compounds were administered by intraperitoneal injection in a vehicle comprising 20% propylene glycol, 80% saline and 3 drops TWEEN-20 30 minutes or 1 hour prior to topical application of RTX or CAP. Control animals were injected with vehicle only. 0.1 μg RTX or 250 μg CAP was applied to the left ears and acetone was applied to the right ears. After 30 minutes of incubation, the mice were scarified, ears removed and bores taken and weighed.\nEdema was measured by subtracting the weight of the right ear (control) from the weight of the left ear. The results were recorded as % decrease (inhibition) or % increase (potentiation) in edema relative to the control group edema."}, "[3]": {"system": "tissue myeloperoxidase activity", "experiment": "Myeloperoxidase (MPO) enzyme assay of mouse ear biopsies", "format": "in vivo", "details": "topical", "from_the_text": "To determine neutrophil influx into inflammed tissue region, the following assay may be conducted. Generally, myeloperoxidase (MPO), a neutrophil-specific marker released from primary granules, is indicative of the extravasation of pro-inflammation neutrophils from blood into the skin. Thus, to determine whether a test compound prevents, inhibits, modulates or attenuates inflammation related to an immunogenic inflammatory pathway or neutrophil influx, ear biopsies from treated and untreated mouse ears may be extracted and quantitated according to a modified method of Bradley, P.O., et al. (1982) J. Invest Dermatology 78:206-209, which is herein incorporated by reference. Specifically, ear bores from each treatment group from mouse ear edema assays from part A above were pooled and homogenized in 80 mM sodium phosphate buffer (pH 5.4) comprising 0.5% hexadecyltrimethylammonium bromide in a siliconized glass test tube for 1 minute at 0° C. using a Brinkman Polytron. The mixtures were centrifuged at 10,000×g at 4° C. for 30 minutes. 10 μl samples from each group were then assayed in a 96-well microtiter plate. The assay was initiated by adding 250 μl of o-dianisi-dine/phosphate reagent (0.28 mg of dianisidine added to 1 ml of 50 mM sodium phosphate comprising 0.0015 H2O2) to each well. After a 30 minute incubation at 37° C., the plates were read at 450 nm on a Molecular Devices microplate reader. Diluted control biopsies were utilized to develop a standard curve. Optical density values from drug-treated groups were compared to control groups to determine the % of control values of enzyme activity."}},
  "note": "Read-outs that look alike come from different tables or passages of the source.",
  "data": [
    {"substance": "scytonemin", "values": [
      {"measurement": "reduction of GST-PLK1 activity", "setting": "[1]; 3 μM SCY", "result": "about 58%"},
      {"measurement": "time dependence of GST-PLK1 inhibition", "setting": "[1]; 3 μM and 10 μM, preincubation 0, 15, 30, 45 minutes", "result": "not time dependent"},
      {"measurement": "reduction of GST-PLK1 activity", "setting": "[1]; 10 μM SCY", "result": "about 93%"},
      {"measurement": "IC50", "setting": "[1]; 10 μM unlabelled ATP, 60 minutes at 37° C., IC50±S.E.M., read-out: IC50 for inhibition of GST-PLK1 phosphorylation of GST-cdc25C", "result": "1950 ± 70", "unit": "nM"},
      {"measurement": "Ki", "setting": "[1]; ATP competition, read-out: Ki when fitted as an uncompetitive inhibitor", "result": "2300 ± 1900", "unit": "nM"},
      {"measurement": "Ki", "setting": "[1]; ATP competition, read-out: Ki when fitting the data as a competitive inhibitor", "result": "3000 ± 1900", "unit": "nM"},
      {"measurement": "mechanism of inhibition of GST-PLK1", "setting": "[1]; ATP competition, double-reciprocal plot", "result": "mixed inhibitor"},
      {"measurement": "GST-cdc25C phosphorylation by GST-PLK1 (phosphorimage)", "setting": "[1]; in the presence of 10 μM SCY", "result": "virtually no phosphorylated GST-cdc25C detectable"},
      {"measurement": "inhibition of edema", "setting": "[2]; systemic 10 mg/kg, 30 minutes before topical CAP", "result": "no inhibition of edema"},
      {"measurement": "inhibition of edema", "setting": "[2]; topical 500 μg/ear against 250 μg/ear CAP", "result": "~24", "unit": "%"},
      {"measurement": "inhibition of MPO activity", "setting": "[3]; 1 μg scytonemin", "result": "about 19%"},
      {"measurement": "inhibition of MPO activity", "setting": "[3]; 5 μg scytonemin", "result": "~18", "unit": "%"},
      {"measurement": "inhibition of MPO activity", "setting": "[3]; 10 μg scytonemin (fourth dose listed)", "result": "~90", "unit": "%"},
      {"measurement": "inhibition of MPO activity", "setting": "[3]; 10 μg scytonemin (third dose listed)", "result": "~68", "unit": "%"}
    ]}
  ]
}
